Where “and” joins values, the source holds several entries; their conditions need not be identical. Equal values may be shown once.
Columns and labels:
[1] = molecular target: T1, NgTet1 (Naegleria gruberi, UniProt D2W6T1); test: End-point analysis for tandem activity detection (SPE-MS); format: biochemical; details: 5 µM NgTet1, 20 µM DNA, SPE-MS (Fig. S4)
T1 construct: His6-tagged full-length Naegleria gruberi NgTet1 (321 a. a.) protein with a thrombin cleavage site; made in house; host or cells: E. coli BL21(DE3)
T1 sequence (D2W6T1 1-321): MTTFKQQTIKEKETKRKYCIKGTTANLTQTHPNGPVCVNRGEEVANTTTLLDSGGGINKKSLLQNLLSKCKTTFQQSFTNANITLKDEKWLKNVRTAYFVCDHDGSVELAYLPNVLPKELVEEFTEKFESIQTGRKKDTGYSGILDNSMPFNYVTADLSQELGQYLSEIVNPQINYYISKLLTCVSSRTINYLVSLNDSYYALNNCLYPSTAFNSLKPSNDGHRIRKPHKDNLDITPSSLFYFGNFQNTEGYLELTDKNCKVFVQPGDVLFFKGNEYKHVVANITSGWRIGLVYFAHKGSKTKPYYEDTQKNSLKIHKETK
Experimental: SPE-MS spectra were recorded on an Agilent RapidFire 365 High-throughput Mass Spectrometry system coupled to an Agilent 6550 iFunnel Q-TOF mass spectrometer following reported procedures[33],[34]. A RapidFire C4 (type A) solid-phase extraction (SPE) cartridge (Agilent, Cat#: G9203A) was used for analyte separation. A binary solvent system was used. Solvent A: 6 mM octylammonium acetate (prepared as described previously)[45] in H2O; solvent B: 80% v/v MeCN in H2O. Samples were aspirated into the sample loop using vacuum (40 μL) from a 96/384-well plate and loaded directly onto the SPE cartridge. The cartridge was washed with solvent A (4,000 ms, 1.5 mL min^−1), and the analyte was eluted with solvent B (4000 ms; 1.25 mL min^−1) onto the Q-TOF MS. Following each sample injection, the SPE cartridge was flushed with 3–6 cycles of H2O and MeCN to remove residual analyte before re-equilibration into solvent A. Q-TOF settings for DNA oligomer analysis were as follows: drying gas temperature: 280 °C; drying gas flow: 13 L min^−1; nebuliser gas pressure: 40 psig; sheath gas temperature: 350 °C; sheath gas flow: 12 L min^−1; capillary voltage (Vcap): 4000 V; nozzle voltage: 0 V; fragmentor voltage: 250 V; spectrum acquisition rate: 5 Hz. Data was processed using Agilent MassHunter Qualitative Analysis™ (B.07.00) and RapidFire Integrator software.
The samples were analysed by SPE-MS. […]

[2] = molecular target: T1, NgTet1; test: biochemical; details: for normalised activity, %: AlphaScreen
Experimental: (Fig. 5a), were screened for inhibitory activity against NgTet1.
Activity was normalised against reactions containing vehicle (DMSO). […] AS data shown as the mean of three experimental replicates (n = 3; mean ± SD); ^1H NMR data plotted from two independent replicates (n = 2); tabulated data reported as the mean of two and three independent replicates for ^1H NMR and AS, respectively (n = 2–3, SD reported for n = 3). N. d.: not determined; AS: AlphaScreen.
Compounds in DMSO (100 nL) were pre-dispensed in a logarithmically linear concentration gradient onto 384-well ProxiPlates using an Echo® 550 acoustic liquid handler (Labcyte). NgTet1 was pre-incubated with the inhibitor dilution series in DMSO at room temperature for 10 min. Reactions were initiated by the addition of appropriate cofactors and DNA. […] The reactions were quenched by the addition of 30 mM EDTA (pH 4.2), 358 mM NaCl (5 μL) within the enzyme linear activity window (determined in Fig. S10). Concurrently, a mixture containing the anti-^5hmC antibody (1:2000 dilution) and AlphaScreen beads (1:62.5 dilution) in assay buffer was prepared and incubated at room temperature for 30 min. The AlphaScreen bead/antibody mixture was added to the quenched NgTet1 reactions (5 μL), and the complete mixture was incubated at room temperature for 1 h. Chemiluminescence was measured on a PHERAstar FS/FSX (BMG Labtech) equipped with an AlphaScreen 680 570 module. All AlphaScreen bead manipulations were performed under subdued lighting. Inhibition data was normalised to reactions containing vehicle only (1% v/v DMSO) and fitted using “log(inhibitor) vs. response—Variable slope (four parameters)” non-linear regression model on GraphPad Prism 5.

| Compound | enzymatic oxidation by NgTet1 [1] | normalised activity, % ([2]; -Log[inhibitor] (M) 3.30535) | normalised activity, % ([2]; -Log[inhibitor] (M) 3.82823) | normalised activity, % ([2]; -Log[inhibitor] (M) 4.30535) | normalised activity, % ([2]; -Log[inhibitor] (M) 4.90741) | normalised activity, % ([2]; -Log[inhibitor] (M) 5.39553) | normalised activity, % ([2]; -Log[inhibitor] (M) 5.91841) | normalised activity, % ([2]; -Log[inhibitor] (M) 6.39553) | normalised activity, % ([2]; -Log[inhibitor] (M) 6.99759) | normalised activity, % ([2]; -Log[inhibitor] (M) 7.50947) | normalised activity, % ([2]; -Log[inhibitor] (M) 8.03235) | IC50 ([2]; read-out: IC50, 5mC ssDNA, AS) [µM] |
| --- | --- | --- | --- | --- | --- | --- | --- | --- | --- | --- | --- | --- |
| 5HC DNA: non-methylated DNA of the same sequence, 5'-ACC ACC GGT GGT-3', non-substrate (DNA ACCACCGGTGGT; DNA, backbone not given here) | did not undergo enzymatic oxidation | – | – | – | – | – | – | – | – | – | – | – |
| O=C(O)CNC(=O)C(=O)O [NOG, N-oxalylglycine] | – | 27.0589% and 23.4073% and 23.5938% | 54.6166% and 46.9965% and 50.3704% | 72.1146% and 66.2321% and 78.0488% | 90.0386% and 80.363% and 83.4878% | 101.245% and 102.244% and 89.2336% | 103.288% and 99.259% and 97.2201% | 114.516% and 95.8112% and 105.039% | 113.992% and 95.1834% and 95.7883% | 110.682% and 100% and 109.028% | 108.192% and 91.8591% and 90.7491% | 200 |

Reference: publication PMC11662004 (Communications Chemistry, 2024)
